# Test results as given in patent publication US20170044492A1, “CONVERSION OF SOMATIC CELLS INTO NOCICEPTORS, AND METHODS OF USE THEREOF” (CHILDERN'S MEDICAL CENTER CORPORATION, priority 2013, published 2017).
# Where “and” joins values, the source holds several entries; their conditions need not be identical. Equal values may be shown once. Read-outs that look alike come from different tables or passages of the source.
# How the values were obtained:
# [1] = system: primary DRGs; format: cell-based, mouse
# [2] = system: induced nociceptors; format: cell-based, mouse
# [3] = system: BAM-derived neurons; format: cell-based, mouse
# [4] = biological target: T1, TrpV1 receptor (Mus musculus, UniProt Q704Y3); test: PGE2 sensitization of the capsaicin response, calcium imaging of induced nociceptors; format: cell-based
# T1 construct: endogenous in cells; host or cells: tdTomato-positive induced nociceptors reprogrammed from TrpV1-Cre+/-::tdTomato+/- mouse embryonic fibroblasts
# [5] = system: induced human neurons; test: Whole-cell patch clamp of induced human neurons; format: cell-based
# [6] = system: tdTomato-positive induced neurons; test: Whole-cell patch clamp of induced nociceptors; format: cell-based, mouse
# [7] = system: KCl-responding neurons derived from the BAM factors; test: Calcium imaging of neurons derived from the BAM factors alone; format: cell-based, mouse
# [8] = system: tdTomato-positive primary DRG neurons; test: Calcium imaging of tdTomato-positive primary DRG neurons with Trp channel agonists; format: cell-based, mouse
# [9] = system: tdTomato-positive induced nociceptors; test: Calcium imaging of tdTomato-positive induced nociceptors with Trp channel agonists; format: cell-based, mouse
# [10] = system: induced neurons; test: Extracellular multi-electrode array recording of induced neurons after agonist application; format: cell-based, mouse
# [11] = system: induced nociceptors; format: cell-based, mouse; remark: listed apart in the source
# [12] = biological target: T2, P2X3 subtype of ionotropic purinergic receptors (Mus musculus, UniProt Q3UR32); test: Whole-cell patch clamp of P2X3 currents in induced nociceptors; format: cell-based; conditions: 30 μM
# T2 construct: Whole-cell patch recordings were performed on induced tdTomato-positive nociceptors, derived from TrpV1-Cre^+/−::tdTomato^+/− MEFs; endogenous in cells; host or cells: tdTomato-positive induced nociceptors reprogrammed from TrpV1-Cre+/-::tdTomato+/- mouse embryonic fibroblasts
# T2 sequence (Q3UR32 1-397): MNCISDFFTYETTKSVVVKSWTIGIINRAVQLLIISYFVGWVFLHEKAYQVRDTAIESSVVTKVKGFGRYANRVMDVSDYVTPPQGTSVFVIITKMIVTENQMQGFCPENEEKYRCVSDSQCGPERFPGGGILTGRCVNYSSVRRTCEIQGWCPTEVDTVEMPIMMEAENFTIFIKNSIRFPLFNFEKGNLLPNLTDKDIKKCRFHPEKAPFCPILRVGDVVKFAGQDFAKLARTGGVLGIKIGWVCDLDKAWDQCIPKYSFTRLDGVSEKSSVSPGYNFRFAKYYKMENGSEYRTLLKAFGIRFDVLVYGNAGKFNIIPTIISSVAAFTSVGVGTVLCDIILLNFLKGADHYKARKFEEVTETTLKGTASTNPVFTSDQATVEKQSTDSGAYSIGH
# [13] = adult TrpV1::tdTomato mice, same procedure, n=249 tdTomato-positive cells that responded to KCl
# [14] = induced nociceptors, capsaicin 1 μM, mustard oil 100 μM, menthol 250 μM, n=227 tdTomato-positive cells that responded to KCl
# T1 sequence (Q704Y3 whole entry): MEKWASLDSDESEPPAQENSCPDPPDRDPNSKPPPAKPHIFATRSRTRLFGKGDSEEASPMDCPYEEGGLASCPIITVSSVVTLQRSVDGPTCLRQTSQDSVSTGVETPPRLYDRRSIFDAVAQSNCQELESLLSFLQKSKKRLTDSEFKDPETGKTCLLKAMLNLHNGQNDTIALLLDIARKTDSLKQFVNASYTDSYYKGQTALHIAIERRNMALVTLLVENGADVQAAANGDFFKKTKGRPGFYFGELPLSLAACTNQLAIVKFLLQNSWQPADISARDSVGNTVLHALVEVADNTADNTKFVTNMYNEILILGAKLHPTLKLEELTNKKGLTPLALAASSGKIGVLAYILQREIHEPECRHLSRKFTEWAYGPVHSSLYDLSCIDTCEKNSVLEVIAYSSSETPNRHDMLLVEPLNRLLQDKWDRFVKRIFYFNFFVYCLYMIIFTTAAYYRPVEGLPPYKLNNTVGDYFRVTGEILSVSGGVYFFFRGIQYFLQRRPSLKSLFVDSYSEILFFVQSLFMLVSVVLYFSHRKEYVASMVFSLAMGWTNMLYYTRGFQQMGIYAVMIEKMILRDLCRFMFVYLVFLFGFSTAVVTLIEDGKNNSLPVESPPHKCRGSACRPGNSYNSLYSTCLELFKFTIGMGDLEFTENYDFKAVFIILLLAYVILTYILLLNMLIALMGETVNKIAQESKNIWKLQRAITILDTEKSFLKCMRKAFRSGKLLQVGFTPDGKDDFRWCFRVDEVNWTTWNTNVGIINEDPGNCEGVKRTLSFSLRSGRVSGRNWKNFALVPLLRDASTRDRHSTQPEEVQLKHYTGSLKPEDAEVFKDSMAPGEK
molecule,measurement,setting,value
"[Cl-].[K+] [KCl, potassium chloride]",CGRP release from primary DRGs,[1],dose-dependent increase in CGRP release
same,"CGRP released, mean (s.e.m.)",[2],390.4 (52.5) pg ml-1
same,"CGRP released, mean (s.e.m.)",[3],10.3 (2.6) pg ml-1
"CCCCC[C@H](O)/C=C/[C@H]1[C@H](O)CC(=O)[C@@H]1C/C=C\CCCC(=O)O [PGE2, Prostaglandin E2]","mean change in fluorescence absorption ratio, PGE2-sensitized capsaicin response","[4]; second 300 nM capsaicin application after 1 μM PGE2 for two minutes, n=41",0.18±6.0*10^−3
"NC1=N[C@H](O)[C@H]2[C@H]3O[C@]4(O)O[C@@H]([C@@H](O)[C@@]2(N1)[C@@H]4O)[C@]3(O)CO [TTX, tetrodotoxin]",neurons with TTX-resistant sodium currents (neurons/total),[5],10/10
same,induced neurons firing single TTX-resistant action potentials overshooting 0 mV (neurons/total),[6],8/16 and 7/12
same,induced neurons with TTX-resistant sodium currents greater than 50 pA (neurons/total),[6],14/15
COc1cc(CNC(=O)CCCC/C=C/C(C)C)ccc1O [capsaicin],KCl-responding neurons that responded to capsaicin (responders/total),[7],0/50
same,tdTomato-positive primary DRG neurons that responded to agonist,[8]; [13],36%
same,tdTomato-positive cells that responded to agonist,[9]; [14],39%
same,arrays with robust action potential firing after agonist application (arrays/total),"[10]; capsaicin 1 μM, mustard oil 100 μM",3/3
same,neurons with inward currents elicited by capsaicin (neurons/total),"[6]; 1 μM capsaicin, voltage clamp, holding −80 mV",6/11
same,"mean change in fluorescence absorption ratio, initial capsaicin response","[4]; 300 nM capsaicin, before PGE2",0.028±3.0*10^−3
CC1CCC(C(C)C)C(O)C1 (stereo not drawn) [menthol],tdTomato-positive primary DRG neurons that responded to agonist,[8]; [13],2.5%
same,tdTomato-positive cells that responded to agonist,[9]; [14],3%
C=CCN=C=S [mustard oil],tdTomato-positive primary DRG neurons that responded to agonist,[8],2.5%
same,tdTomato-positive cells that responded to agonist,[9],9%
same,arrays with robust action potential firing after agonist application (arrays/total),[10],3/3
O=C1[O][Pt]2([NH][C@@H]3CCCC[C@H]3[NH]2)[O]C1=O [oxaliplatin],sensitization of capsaicin response (spikes),[11],marked sensitization
"Nc1ncnc2c1ncn2[C@@H]1O[C@H](COP(=O)(O)CP(=O)(O)OP(=O)(O)O)[C@@H](O)[C@H]1O [α, β-methylene-ATP]",neurons with rapidly-adapting inward currents elicited by agonist (neurons/total),[12],8/16
ZD7288,neurons with ZD7288-sensitive HCN currents (neurons/total),[6],2/2
